Patent publication US20090047246A1, “NOVEL INHIBITORS OF HEPATITIS C VIRUS REPLICATION” (InterMune, Inc., priority 2007, published 2009)
Where two headings read alike, the source gives them in different places.

Target: T1, HCV NS3 helicase (Hepatitis C virus genotype 1b, UniProt P26663)
T1 construct: full-length NS3 (1-631), purified at Array BioPharma
Experiment: HCV Helicase Prompt FRET Assay (Example A)
Type: biochemical
Details: read-out: IC50 Activity
Protocol: Test compounds were diluted to 2.5 mM by adding 6 uL of a 10 mM solution of the compound to 18 uL of DMSO in a 384-well Costar polypropylene plate. Serial dilutions (2.5×) were performed in the plate using DMSO as the diluent. 1 ul of solution was transferred from each well to a new 384-well Costar polypropylene plate.
A 2× mixture was prepared containing 100 nM helicase substrate, 500 nM helicase capture strand (CS), and 600 μM ATP by diluting stock solutions with assay buffer consisting of 25 mM MOPS, pH 7.0, and 1.5 mM MgCl2, 0.005% (v/v) Triton X-100. Stock helicase substrate was prepared by annealing a FAM-labeled oligonucleotide to a BHQ-1 labeled oligonucleotide, which were both custom synthesized and HPLC-purified at Biosearch Technologies. The FAM-labeled and BHQ-labeled oligonucleotide had the following sequences:
The helicase capture strand was custom synthesized and purified at Integrated DNA Technologies. The helicase capture strand had the following sequence:
The ATP solution was prepared in MilliQ water, pH adjusted to approximately 7 with NaOH. ATP powder was obtained from Sigma (A-7699). The concentration was determined via A260 (ext. coeff=15,400 M^−1cm^−1).
11.5 μL of assay buffer was added to all wells of the plate containing luL of test compound. 5 μL of the Compound/assay buffer mixture was added to a black polystyrene 384-well Proxiplate. A 4× Enzyme solution was prepared by diluting enzyme stock containing full-length NS3 (1-631), purified at Array BioPharma, with assay buffer. 5 μL of the 4× Enzyme solution was added to the Proxiplate and incubated for 5 minutes (for control wells lacking enzyme, assay buffer was used instead). 10 μL of 2× substrate/CS/ATP mixture was then added to all wells of Proxiplate. The final assay conditions included 50 nM Substrate, 250 nM Capture Strand, 300 μM ATP, 5 or 6 nM Enzyme, and 2% (v/v) DMSO. The reaction proceeded for 70 cycles (˜30 min.) on an Envision at room temperature. The plate was read using the Envision (top mirror=FITC; Excitation filter=FITC 485; Emission filter=FITC 535). The fluorescence intensity was recorded for a total of 30 minutes. The initial rates of the reactions was calculated and used to calculate IC50 values. The IC50 curve fitting was performed using either a 4-parameter or 5-parameter logistic equation.

[1] = HCV NS3 helicase, tables do not say whether Example A or Example B assay
[2] = Table 21, compounds made using Scheme 28
[3] = Table 34, compounds made using Schemes 51-52
[4] = Table 35, compounds made using Scheme 53
[5] = Table 31, compounds made using Schemes 38-45

T1 sequence (P26663 1027-1657): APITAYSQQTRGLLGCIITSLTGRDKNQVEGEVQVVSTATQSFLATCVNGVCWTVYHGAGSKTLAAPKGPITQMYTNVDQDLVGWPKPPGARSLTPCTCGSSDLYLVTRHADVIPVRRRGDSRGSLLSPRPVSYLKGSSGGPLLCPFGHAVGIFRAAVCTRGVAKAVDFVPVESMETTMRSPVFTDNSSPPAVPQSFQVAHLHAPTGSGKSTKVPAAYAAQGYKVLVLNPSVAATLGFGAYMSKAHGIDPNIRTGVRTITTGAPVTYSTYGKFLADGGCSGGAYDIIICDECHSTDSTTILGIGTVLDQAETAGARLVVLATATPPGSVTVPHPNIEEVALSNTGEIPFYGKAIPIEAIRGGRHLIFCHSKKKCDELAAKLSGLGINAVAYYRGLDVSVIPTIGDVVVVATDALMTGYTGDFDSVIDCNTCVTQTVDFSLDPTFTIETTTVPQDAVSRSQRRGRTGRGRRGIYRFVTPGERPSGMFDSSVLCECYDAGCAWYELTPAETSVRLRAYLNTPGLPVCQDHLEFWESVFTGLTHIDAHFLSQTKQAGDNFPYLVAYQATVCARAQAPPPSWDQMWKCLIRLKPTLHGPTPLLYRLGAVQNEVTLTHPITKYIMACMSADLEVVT

Structure (SMILES) | IC50 [1] [µM] | also measured
CN(c1cccc(Cn2cc(CC(=O)O)c3ccccc32)c1)c1cc(F)ccc1F [Example 535] | 10 to 50 | –
CSc1cccc(-c2ccc(-n3cc(CC(=O)O)c4ccccc43)cc2)c1 [Example 155] | < 10 | –
COc1cccc(N(C)c2ccc(Cn3cc(CC(=O)O)c4ccccc43)cc2)c1 [Example 563] | – | IC50 [2]: < 10 µM
Cc1cc([N+](=O)[O-])ccc1-n1cc(C(O)(C(=O)N2CCCC2)C(F)(F)F)c2cc(Br)ccc21 (stereo not drawn) [Example 402] | > 50 | –
O=P(O)(O)Cc1cn(-c2ccc(S(=O)(=O)CCO)cc2)c2ccc(Br)cc12 [Example 315] | 10 to 50 | –
O=C(O)Cc1cn(Cc2cccc(Oc3cc(F)cc(F)c3)c2)c2ccccc12 [Example 485] | 10 to 50 | –
COC(=O)CC1CN(c2ccc([N+](=O)[O-])cc2C)c2ccc(Br)cc21 (stereo not drawn) [Example 393] | 10 to 50 | –
CCCN(Cc1ccccc1)c1ccc(-n2cc(CC(=O)O)c3ccccc32)cc1 [Example 170] | 10 to 50 | –
Cc1c(Cl)cccc1-c1ccc(-n2cc(CC(=O)O)c3ccccc32)cc1 [Example 150] | < 10 | –
Cc1cc([N+](=O)[O-])ccc1CC1CN(c2ccc([N+](=O)[O-])cc2C)c2ccc(Br)cc21 (stereo not drawn) [Example 405] | 10 to 50 | –
Cc1cc([N+](=O)[O-])ccc1-n1cc(C(NC(=O)C2CCCN2C(=O)OC(C)(C)C)C(=O)O)c2ccccc21 (stereo not drawn) [Example 671] | – | IC50 [3]: 10 to 50 µM
O=C(O)Cc1c(C(=O)Cc2ccc(-c3ccccc3)cc2)[nH]c2ccccc12 [Example 249] | 10 to 50 | –
CC(C)c1ccc(Cn2cc(CC(=O)O)c3ccc(-c4cc(N)cc(N)c4)cc32)cc1 [Example 619] | – | IC50 (Table 28, compounds made using Scheme 35): < 10 µM
O=C(O)Cc1cn(Cc2ccc(Oc3cccc(Cl)c3)cc2)c2ccccc12 [Example 497] | < 10 | –
O=C(O)Cc1cn(Cc2csc3ccccc23)c2ccc(Br)cc12 [Example 678] | – | IC50 [3]: 10 to 50 µM
CC(C)c1ccc(Cn2cc(CC(=O)O)c3ccccc32)cc1 [Example 424] | 10 to 50 | –
C=CCn1c(Cc2csc3ccc(Cl)cc23)c(CC(=O)O)c2ccc(OCc3ccccc3)cc21 [Example 367] | < 10 | –
Cc1cc([N+](=O)[O-])ccc1-n1cc(C(=O)C(=O)O)c2cc(Br)cnc21 [Example 332] | 10 to 50 | –
CCOC(=O)Cc1c(-c2ccccc2)n(Cc2csc3ccc(Cl)cc23)c2ccccc12 [Example 412] | > 50 | –
O=C(O)Cc1cn(Cc2ccc(Oc3c(F)cccc3F)cc2)c2ccccc12 [Example 587] | < 10 | –
O=C(O)Cc1cn(Cc2ccc(Cl)s2)c2ccc(Br)cc12 [Example 137] | 10 to 50 | –
CN(c1ccc(F)cc1)c1cccc(Cn2cc(CC(=O)O)c3ccccc32)c1 [Example 522] | < 10 | –

Structure (SMILES) | IC50 [1] [µM] | also measured
CC(C)c1ccc(Cn2cc(C(Cc3ccccc3)C(=O)NO)c3cc(Br)ccc32)cc1 (stereo not drawn) [Example 684] | – | IC50 [3]: < 10 µM
Cc1cc([N+](=O)[O-])ccc1-n1cc(C(Cc2ccccc2)C(=O)O)c2cc(Br)ccc21 (stereo not drawn) [Example 398] | < 10 | –
CC(=O)NC(C(=O)O)c1cn(Cc2ccc(C(C)C)cc2)c2ccccc12 (stereo not drawn) [Example 420] | 10 to 50 | –
Nc1cc(N)cc(-c2ccc3c(CC(=O)O)cn(Cc4cc5cc(Cl)ccc5s4)c3c2)c1 [Example 710] | – | IC50 [4]: < 10 µM
CCOC(=O)Cc1cn(Cc2ccc(Oc3cc(C(F)(F)F)cc(C(F)(F)F)c3)cc2)c2ccccc12 [Example 517] | 10 to 50 | –
O=C(O)Cc1cn(-c2ccc3ccccc3c2)c2ccccc12 [Example 143] | 10 to 50 | –
CN(c1ccc(Cn2cc(CC(=O)O)c3ccccc32)cc1)c1c(Cl)cccc1Cl [Example 576] | – | IC50 [2]: < 10 µM
O=C(O)c1cccc2[nH]c3ccccc3c12 [Example 467] | > 50 | –
CC(C)c1ccc(Cn2cc(C(NC(N)=O)C(=O)O)c3ccccc32)cc1 (stereo not drawn) [Example 423] | 10 to 50 | –
Nc1cc(-c2ccc3c(CC(=O)NOC4CCCCO4)cn(Cc4csc5ccc(Cl)cc45)c3c2)cc([N+](=O)[O-])c1 (stereo not drawn) [Example 690] | – | IC50 [3]: > 50 µM
Nc1cc(N)cc(-c2ccc3c(CC(=O)O)cn(Cc4csc5ccc(Br)cc45)c3c2)c1 [Example 734] | – | IC50 [4]: 10 to 50 µM
O=C(O)Cc1c(Cc2ccc(-c3ccccc3Cl)cc2)[nH]c2ccccc12 [Example 279] | < 10 | –
CC(C)c1ccc(Cn2c(C(=O)NC3CCCCC3)c(CC(=O)O)c3cc(Br)ccc32)cc1 [Example 435] | 10 to 50 | –
O=C(O)Cc1cn(Cc2cccc(Oc3cccc(F)c3)c2)c2ccccc12 [Example 473] | < 10 | –
O=C(O)Cc1cn(-c2ccc(N(Cc3ccccc3)Cc3ccccc3)cc2)c2ccccc12 [Example 169] | < 10 | –
CC(C)c1ccc(Cn2c(C(=O)Nc3cccnc3)c(CC(=O)O)c3ccccc32)cc1 [Example 463] | 10 to 50 | –
CNc1nc(-c2ccc3c(CC(=O)O)cn(Cc4csc5ccc(Cl)cc45)c3c2)nc2[nH]cnc12 [Example 640] | – | IC50 [5]: < 10 µM
O=C(O)Cc1c(C(=O)c2ccc(-c3ccccc3Cl)cc2)[nH]c2ccc(Br)cc12 [Example 275] | < 10 | –
NC(=O)c1nc(N)sc1-c1ccc2c(CC(=O)O)cn(Cc3csc4ccc(Cl)cc34)c2c1 [Example 654] | – | IC50 (Table 32, compounds made using Schemes 46-49): < 10 µM
O=C(O)C(=O)c1cn(Cc2csc3ccc(Cl)cc23)c2cc(N3CCCC(O)C3)ccc12 (stereo not drawn) [Example 744] | < 10 | –
CC(C)c1ccc(Cn2c(C(=O)NCc3ccc(F)cc3)c(CC(=O)O)c3ccccc32)cc1 [Example 452] | < 10 | –
Cn1c(Cc2csc3ccc(Cl)cc23)c(CC(=O)O)c2ccc(OCc3ccccc3)cc21 [Example 368] | < 10 | –

Structure (SMILES) | IC50 [1] [µM] | also measured
COc1cccc(Oc2ccc(Cn3cc(CC(=O)O)c4ccccc43)cc2)c1 [Example 499] | 10 to 50 | –
COc1ccc2c(CC(=O)O)cn(-c3ccc([N+](=O)[O-])cc3C)c2c1 [Example 341] | > 50 | –
CC(c1nnn[nH]1)c1cn(Cc2csc3ccc(Cl)cc23)c2ccccc12 (stereo not drawn) [Example 215] | 10 to 50 | –
Cc1oncc1C(=O)Nc1ccc(-n2cc(CC(=O)O)c3ccccc32)cc1 [Example 163] | 10 to 50 | –
Cc1cc(C)cc(-c2cccc(C(=O)c3[nH]c4ccccc4c3CC(=O)O)c2)c1 [Example 233] | < 10 | –
c1ccc(-c2ccccc2Cn2cc(Cc3nnn[nH]3)c3ccccc32)cc1 [Example 203] | < 10 | –
O=C(O)Cc1cn(-c2ccc([N+](=O)[O-])cc2C2OCCO2)c2ccc(Br)cc12 [Example 339] | 10 to 50 | –
COc1ccc(Oc2ccc(Cn3cc(CC(=O)O)c4ccccc43)cc2)cc1OC [Example 511] | < 10 | –
Cn1c(Cc2ccc(-c3ccccc3)cc2)c(CC(=O)O)c2ccccc21 [Example 276] | 10 to 50 | –
CCOc1cccc(-c2cccc(C(=O)c3[nH]c4ccccc4c3CC(=O)O)c2)c1 [Example 226] | 10 to 50 | –
COC(=O)C(C)c1cn(-c2ccc([N+](=O)[O-])cc2C)c2ccc(Br)cc12 (stereo not drawn) [Example 390] | > 50 | –
COC(=O)c1ccc(N)cc1-c1ccc2c(CC(=O)O)cn(Cc3csc4ccc(Cl)cc34)c2c1 [Example 642] | – | IC50 [5]: < 10 µM
CC(C)c1cccc(-c2cccc(C(=O)c3oc4ccccc4c3CC(=O)O)c2)c1 [Example 245] | < 10 | –
CN(c1ccc(Cn2cc(CC(=O)O)c3ccccc32)cc1)c1cccc(Cl)c1 [Example 560] | – | IC50 [2]: < 10 µM
CCNC(=O)Cc1cn(Cc2cccc(OCc3ccccc3)c2)c2ccc(OCc3ccccc3)cc12 [Example 186] | 10 to 50 | –
O=C(O)Cc1cn(Cc2ccc(Oc3ccc(Cl)c(Cl)c3)cc2)c2ccccc12 [Example 507] | < 10 | –
CN(c1cccc(Cn2cc(CC(=O)O)c3ccccc32)c1)c1cc(Cl)ccc1Cl [Example 539] | < 10 | –
O=C(O)Cc1cn(Cc2csc3ccc(Br)cc23)c2ccc(Br)cc12 [Example 135] | < 10 | –
Cc1sc2ccc(Cl)cc2c1Cn1cc(CC(=O)O)c2ccccc21 [Example 790] | – | IC50 (Table 36, compounds made using Scheme 54): > 50 µM
CCOC(=O)Cc1cn(Cc2ccc(Oc3cccc(OC)c3)cc2)c2cc(-c3cccc(OC(C)=O)c3)ccc12 [Example 602] | 10 to 50 | –
Nc1cccc(-c2ccc3c(CC(=O)O)cn(Cc4csc5ccc(Cl)cc45)c3c2)c1 [Example 765] | – | IC50 (Table 37, compounds made using Scheme 55): < 10 µM
CCN(c1cccc(Cn2cc(CC(=O)O)c3ccccc32)c1)c1ccccc1Cl [Example 552] | < 10 | –
